Laboratory results as given in publication PMC6628362, “A New Strategy for Glioblastoma Treatment: In Vitro and In Vivo Preclinical Characterization of Si306, a Pyrazolo[3,4-d]Pyrimidine Dual Src/P-Glycoprotein Inhibitor” (Cancers, 2019).
Entries after “also recorded” stand apart in the source; their conditions may differ. Like-named read-outs stand apart in the source and are kept apart here.

How the values were obtained:
[1] = tested on: LN-229; assay: MTT cell growth inhibition, LN-229; type: cell-based, Human; settings: LN-229, MTT, n = 3
[2] = tested on: BT-138; assay: Cell viability, BT-138 (Table S1); type: cell-based; settings: BT-138, 24 h
Protocol: (§1) 1. Cell Growth Inhibition by Dasatinib, Si306 and Pro-Si306
(§2) GB cell lines BT138, T98G and A172 were treated with Si306 and pro-Si306 at concentrations ranging from 1 to 100 µM, or with DMSO as a control. Cell viability was evaluated 72 h after treatment for T98G and A172 cell lines and after 24 h for BT-138. In table S1 the IC50 values are reported.
(§3) Table S1. Sensitivity of glioblastoma multiforme (GBM) cells to Si306 and pro-Si306 expressed as IC50 […]
(§4) Figure S1. Rho 123 accumulation in U87-TxR cells treated with increasing concentrations of TQ (A), Dex-VER (B), Si306 (C) and pro-Si306 (D).
(§5) (1 picture or pasted object on this page, not shown here)

[3] = tested on: T98G; assay: Cell viability, T98G (Table S1); type: cell-based; settings: Homo sapiens, 72 h
Protocol: as §1, §2, §3, §4, §5

[4] = tested on: A172; assay: Cell viability, A172 (Table S1); type: cell-based; settings: Homo sapiens, A 172; A172, 72 h
Protocol: as §1, §2, §3, §4, §5

[5] = target: Human Serum Albumin (HSA) (Homo sapiens, UniProt P02768); assay: Binding fluorimetric assay, HSA; type: in vitro ADME
Sequence of Human Serum Albumin (HSA) (P02768 25-609): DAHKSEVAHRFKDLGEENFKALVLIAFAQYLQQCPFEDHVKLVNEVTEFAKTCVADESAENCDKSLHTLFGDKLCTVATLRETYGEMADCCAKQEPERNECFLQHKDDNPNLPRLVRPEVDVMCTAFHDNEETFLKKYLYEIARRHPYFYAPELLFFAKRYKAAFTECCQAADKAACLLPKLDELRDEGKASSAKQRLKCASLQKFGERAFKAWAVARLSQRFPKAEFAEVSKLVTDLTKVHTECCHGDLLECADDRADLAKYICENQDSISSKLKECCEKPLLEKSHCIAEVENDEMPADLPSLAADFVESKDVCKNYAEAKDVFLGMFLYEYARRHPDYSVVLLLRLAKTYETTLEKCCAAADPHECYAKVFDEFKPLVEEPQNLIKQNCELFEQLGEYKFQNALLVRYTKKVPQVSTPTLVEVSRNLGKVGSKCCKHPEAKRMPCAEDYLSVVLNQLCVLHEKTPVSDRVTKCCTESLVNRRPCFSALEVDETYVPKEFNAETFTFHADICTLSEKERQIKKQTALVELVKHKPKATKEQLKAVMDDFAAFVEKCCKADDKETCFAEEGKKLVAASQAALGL
Protocol: (§6) In order to determine the binding affinity for Si306 and pro-Si306 to HSA (human serum albumin) and AGP (alpha-1-acid glycoprotein), the protein fluorescence has been monitored by spectroscopy. The quantitative analysis was performed using black 96 multiwell plates: in each well, a fixed concentration of HSA or AGP (10 µM in phosphate buffer 1 mM) was added with different amounts of the tested compound (0.1 µM to 500 µM). Plates were gently shacked and after 30 min at room temperature for equilibration, spectra were recorded from 300 to 400 nm, after excitation at 295 nm, by using a Perkin Elmer EnVision Multilabel Reader 2014 spectrofluorimeter. Finally, spectra were acquired with EnVision Manager ver.1.13 software (Walthman, MA, USA). The obtained non fluorescence quenching percentages were plotted against drug concentrations and the relative KD values were calculated using GraphPad software (version 6.0).

[6] = tested on: Alpha-1-acid glycoprotein (AGP); assay: Binding fluorimetric assay, AGP; type: in vitro ADME; settings: 10 µM AGP, fluorescence quenching
Protocol: as §6

[7] = Plasma pharmacokinetics of Si306 in mice; type: in vivo, BALB/C mice; settings: for AUC(0-t): read-out: AUC 0→24 h; for MRT inf: read-out: MRT 0→∞
Text: Naive male BALB/C mice (weight 20 ± 2 g) were ordered from Charles River (Milan, Italy). All animals were pathogen free and approximately 4–6 weeks old when they arrived. The adaption period to the environment was not less than seven days. All the procedures used on animals in this study were approved by Institutional Animal Use and Care Committee at Università Cattolica del S. Cuore, Rome and Università degli Studi di Siena and authorized by the Italian Ministry of Health, according to Legislative Decree 116/92, which implemented the European Directive 86/609/EEC on laboratory animal protection in Italy. Methods for all the conducted experiments were performed in accordance with regulations, standards and guidelines of the Animal Use and Care Committee of Università Cattolica del S. Cuore, Rome and Università degli Studi di Siena.
Si306 was dissolved in a mixture of Tween80 (10% v/v), benzyl alcohol (1% v/v) and a 10 mM solution of citric acid. The compound was administered intravenously as a single dose of 25 mg/kg in 200 μL of volume. At several time points (0.08, 0.25, 0.5, 1, 2, 4, 8, 24 h), after drug administration, mice were treated i.p. with heparin (5000 U/kg) and sacrificed under CO2. Five animals were used for each time point. Blood, brain, liver and kidneys were collected for the following quantitative analysis. Approximately 500–600 μL of blood was collected from each animal and transferred to a tube containing 10 μL of heparin and mixed briefly.
For the oral PK studies, mice received a single dose of 50 mg/kg of Si306 (dissolved in the same vehicle used for i.v. studies) in 400 μL of final volume by gavage. At nine time-points (0.25, 0.5, 1, 1.5, 2, 3, 4, 8, 24 h) after administration, mice were sacrificed under CO2. Blood and organs were collected and analyzed by LC-MS. The pharmacokinetic parameters, including area under concentration-time curve (AUC), maximum plasma concentration (Cmax), half-time (t1/2), apparent volume of distribution (V), plasma clearance (CL) and mean residence time (MRT), were calculated by non-compartmental analysis using PKSolver software (ver. 1.0, Nanjing, China).
Blood samples were centrifuged at 5000 rpm for 20 min to separate the plasma fraction, which was subsequently collected in a test tube. Acetonitrile (1 mL, with Si34 as internal standard at the concentration of 5 μg/mL) was added to each sample to denature proteins. Samples were centrifuged at 5000 rpm for 20 min, and the supernatant was recovered, dried under vacuum, solubilized again in methanol (100 μL), and analyzed. Brain and the other organs were homogenized using a T10 basic ULTRA-TURRAX® homogenizer (Bioclass, Pistoia, Italy); in order to extract the compound from the tissue, acetonitrile internal standard solution was added, and the homogenate was centrifuged at 5000 rpm for 20 min. The supernatant was recovered, filtered and analyzed by LC-MS. The quantification of each compound was performed by reference to the appropriate calibration curve. Representative LC-MS chromatograms for Si306 and for Si34 are reported in Figure S2 and Figure S3 respectively.

[8] = tested on: U87 cells; set-up: method as in PMID 28650650; settings: single oral treatment, mice orthotopically injected with U87 cells; cited from earlier work
[9] = set-up: method as in PMID 28650650; settings: cited from earlier work
[10] = target: P-gp (Homo sapiens, UniProt P08183); assay: Rho 123 accumulation assay (P-gp inhibition) in U87-TxR cells; settings: 30 min
Sequence of P-gp (P08183 whole entry): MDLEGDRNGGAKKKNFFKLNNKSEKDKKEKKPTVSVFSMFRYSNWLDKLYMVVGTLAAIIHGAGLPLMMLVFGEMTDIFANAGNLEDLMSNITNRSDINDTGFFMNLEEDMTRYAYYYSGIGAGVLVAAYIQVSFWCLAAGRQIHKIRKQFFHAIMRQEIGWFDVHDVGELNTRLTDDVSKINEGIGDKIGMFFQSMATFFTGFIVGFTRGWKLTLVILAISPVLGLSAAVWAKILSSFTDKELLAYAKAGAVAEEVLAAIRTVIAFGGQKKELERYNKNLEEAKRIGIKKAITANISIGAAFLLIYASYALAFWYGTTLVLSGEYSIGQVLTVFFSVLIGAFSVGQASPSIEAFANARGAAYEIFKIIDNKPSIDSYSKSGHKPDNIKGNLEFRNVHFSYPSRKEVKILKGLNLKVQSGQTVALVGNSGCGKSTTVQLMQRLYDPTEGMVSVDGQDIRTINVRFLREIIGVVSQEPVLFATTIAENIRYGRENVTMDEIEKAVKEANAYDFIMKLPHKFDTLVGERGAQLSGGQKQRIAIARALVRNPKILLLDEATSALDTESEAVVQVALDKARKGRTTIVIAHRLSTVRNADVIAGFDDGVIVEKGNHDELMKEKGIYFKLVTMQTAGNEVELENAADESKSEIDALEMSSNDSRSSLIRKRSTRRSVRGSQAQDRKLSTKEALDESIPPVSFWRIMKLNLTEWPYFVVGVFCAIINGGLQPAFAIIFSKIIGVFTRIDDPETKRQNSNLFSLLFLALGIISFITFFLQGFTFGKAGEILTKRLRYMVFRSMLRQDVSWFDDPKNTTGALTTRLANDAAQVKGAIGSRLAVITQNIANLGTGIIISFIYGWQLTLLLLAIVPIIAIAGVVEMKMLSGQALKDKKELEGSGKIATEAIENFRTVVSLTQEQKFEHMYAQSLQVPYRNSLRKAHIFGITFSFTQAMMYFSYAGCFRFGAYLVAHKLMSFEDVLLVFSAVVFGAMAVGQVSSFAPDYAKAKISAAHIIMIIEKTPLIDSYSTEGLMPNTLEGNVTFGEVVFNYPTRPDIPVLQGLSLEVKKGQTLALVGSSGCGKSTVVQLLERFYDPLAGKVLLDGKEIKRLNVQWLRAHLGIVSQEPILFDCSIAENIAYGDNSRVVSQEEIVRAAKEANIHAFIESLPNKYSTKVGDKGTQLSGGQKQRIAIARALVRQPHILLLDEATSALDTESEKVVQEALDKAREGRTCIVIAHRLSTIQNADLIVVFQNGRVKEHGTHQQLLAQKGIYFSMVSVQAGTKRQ
Protocol: At the end of the accumulation period, the cells were pelleted by centrifugation, washed with PBS and placed in cold PBS. The samples were kept on ice in a dark setting until the analysis on CyFlow Space Partec flow-cytometer (Sysmex Partec GmbH, Germany). […] A minimum of 10,000 events was assayed for each sample and the obtained results were analyzed using Summit Dako Software (ver. 4.3, Fort Collins, CO, USA).

[11] = 10 µM HSA, fluorescence quenching
[12] = male, BALB/C, mouse, iv, 25 mg/kg, mice
[13] = male, BALB/C, mouse, po, 50 mg/kg, mice

ClC(Cn1ncc2c(Nc3cccc(Br)c3)nc(SCCN3CCOCC3)nc21)c1ccccc1 (stereo not drawn) [Si306]
IC50 ([1]; Homo sapiens, LN-229, 72 h): 8 µM
IC50 ([1]; 72 h): 8.01 ± 0.574 µM
IC50 [2]: 72.6 ± 6.21 µM
IC50 [3]: 0.46 ± 0.02 µM
IC50 [4]: 1.69 ± 0.6 µM
BMAX [5, 11]: 61.05 ± 2.8
Kd [5, 11]: 0.35 ± 0.1 µM
affinity for albumin, fold greater than pro-Si306 ([5]; HSA): 60 fold
BMAX [6]: 88.38 ± 1.8
Kd at 30 min ([6]; alpha-1-acid glycoprotein (10 µM) in phosphate buffer): 11.5 ± 1 µM
Cmax for i.v. treatment, times higher than p.o. ([7]; i.v. 25 mg/kg vs p.o. 50 mg/kg): 8.5 times
CL z/F ([7]; i.v., 25 mg/kg, mice): 18.3 mL/min/kg
V z/F ([7]; i.v., 25 mg/kg, mice): 8.17 L/kg
Tmax ([7]; male, BALB/C, mouse, iv, 25 mg/kg, i.v., 25 mg/kg, mice, read-out: Tmax): 0.08 h
Tmax ([7]; male, BALB/C, mouse, iv, 25 mg/kg, i.v., 25 mg/kg, mice, read-out: time of peak plasma concentration (converted)): 0.0833 h
AUC(0-inf) [7, 12]: 22800 ng·h/mL
Cmax [7, 12]: 25400 ng/mL
half-life [7, 12]: 5.15 h
AUC(0-t) [7, 12]: 22300 ng·h/mL
MRT inf [7, 12]: 3.78 h
bioavailability ([7]; male, BALB/C, mouse, oral, 50 mg/kg, mice, p.o. 50 mg/kg vs i.v. 25 mg/kg, equation (1)): 33.3%
AUC(0-inf) [7, 13]: 15200 ng·h/mL
Cmax [7, 13]: 2970 ng/mL
half-life [7, 13]: 5.96 h
AUC(0-t) [7, 13]: 14500 ng·h/mL
CL/F ([7]; male, BALB/C, mouse, po, 50 mg/kg, mice, read-out: CL z/F (converted)): 54.8 mL/min/kg
MRT inf [7, 13]: 5.7 h
Vd/F ([7]; male, BALB/C, mouse, po, 50 mg/kg, mice, read-out: V z/F): 28.3 L/kg
Tmax ([7]; male, BALB/C, mouse, po, 50 mg/kg, p.o., 50 mg/kg, mice, read-out: Tmax): 1.5 h
prolongation of survival [8]: 30%
solubility [9]: very poorly water soluble
P-gp activity (Rho 123 intracellular accumulation) ([10]; 5 µM): considerably inhibited P-gp activity; also recorded: significant suppression of P-gp activity
IC50 ([10]; IC50 of P-gp inhibition, Rho 123 accumulation): 8.5 µM
